This note sets out measurements from PMC7251097, “Aspartate/asparagine-β-hydroxylase: a high-throughput mass spectrometric assay for discovery of small molecule inhibitors” (Scientific Reports, 2020).

Several values for one entry are separate records, joined by “and”; a condition that tells them apart may be missing. Identical values can stand only once. Counter-ions that a name gives are not always drawn. Like-named read-outs stand apart in the source and are kept apart here.

In this assay the target is T1, His6-AspH315–758 (human aspartate/asparagine-β-hydroxylase, AspH) (Homo sapiens, UniProt Q12797).
T1 construct: N-Terminally His6-tagged human AspH315–758 (His6-AspH315–758) was produced in E. coli BL21 (DE3) cells; made in house; host or cells: E. coli BL21 (DE3), pET-28a(+) vector
T1 sequence (Q12797 315-758): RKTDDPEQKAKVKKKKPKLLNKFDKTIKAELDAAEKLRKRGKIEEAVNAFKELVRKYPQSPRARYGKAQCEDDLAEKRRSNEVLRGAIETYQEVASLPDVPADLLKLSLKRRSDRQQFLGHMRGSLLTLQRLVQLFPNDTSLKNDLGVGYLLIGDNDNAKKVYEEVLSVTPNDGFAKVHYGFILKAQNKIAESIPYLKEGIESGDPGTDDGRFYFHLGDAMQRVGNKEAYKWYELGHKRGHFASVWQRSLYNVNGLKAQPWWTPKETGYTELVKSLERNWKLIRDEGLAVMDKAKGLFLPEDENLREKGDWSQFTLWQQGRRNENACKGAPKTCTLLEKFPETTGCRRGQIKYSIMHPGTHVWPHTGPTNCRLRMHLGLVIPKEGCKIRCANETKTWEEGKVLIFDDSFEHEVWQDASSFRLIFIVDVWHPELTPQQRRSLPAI
Description: SPE-MS AspH inhibition assay (LOPAC screen at fixed 20 μM and IC50 dose-response), hydroxylation of cyclic peptide hFX-CP101–119. The conditions noted are these: for Plate 5 (% inhibition) / Plate 5 (% conversion): plate 5 (Pfitzer), test compounds at fixed 20 μM; for Plate 5 (% conversion): mean conversion DMSO 32.88. The format is biochemical.

[1] abbreviates: LOPAC Plate 4, compound at 20 uM, substrate conversion.
The mark [2] stands for this setting: LOPAC Plate 4, compound at 20 uM, read-out: % inhibition.
Setting [3] is: LOPAC compound at 20uM, plate 2, conversion of substrate peptide.
Setting [4] is: LOPAC compound at 20uM, plate 2, normalised to DMSO and 2,4-PDCA controls, read-out: Plate 2 (% inhibition).
Setting [5] is: LOPAC compound at 20uM, plate 2, normalised to DMSO and 2,4-PDCA controls.
[6] abbreviates: LOPAC compound at fixed 20 uM, plate 1, normalised to DMSO and 2,4-PDCA controls.
[7] abbreviates: LOPAC compound at fixed 20 uM, substrate conversion, plate 1.
[8] abbreviates: LOPAC Plate 4, compound at 20 uM.
The mark [9] stands for this setting: LOPAC compound at 20uM, plate 3, conversion of substrate peptide.

In general, inhibition refers to the change of the read-out against control, counted positive when it falls. Turning to `NC[C@@H]1O[C@H](O[C@H]2[C@@H](O)[C@H](O[C@@H]3[C@@H](O)[C@H](N)C[C@H](N)[C@H]3O[C@H]3O[C@H](CO)[C@@H](O)[C@H](O)[C@H]3N)O[C@@H]2CO)[C@H](N)[C@@H](O)[C@@H]1O` [Paromomycin sulfate], the “% conversion” value under setting [1] is on record as 37.25%. The inhibition at 20 µM under setting [2] was -2.28%.
In the case of `O=P(O)(O)C(Cl)(Cl)P(=O)(O)O` [Clodronic acid, reference compound], the inhibition at 20 µM (AspH activity, fixed compound concentration 20 μM, initial LOPAC screen, 0.5%v/v DMSO, read-out: Inhibition at 20 µM [%]) was 100% and the inhibition at 20 µM under setting [4] was found to be 101%. Besides, under setting [3], the “Plate 2 (% conversion)” value is reported as 2.30%.
`CC(C)c1cc(C(C)C)c(CC(=O)NS(=O)(=O)Oc2c(C(C)C)cccc2C(C)C)c(C(C)C)c1` [Avasimibe]: the “Plate 5 (% inhibition)” value was found to be 73.14% and the “Plate 5 (% conversion)” value was determined as 11.42%.
Regarding `O=C1CC[C@@]2(O)[C@H]3Cc4ccc(O)c5c4[C@@]2(CCN3CC2CC2)[C@H]1O5` [Naltrexone hydrochloride], the “Plate 3 (% conversion)” value is reported as 34.83%.
As to `C[N+]1(C)[C@@H]2CC(OC(=O)[C@H](CO)c3ccccc3)C[C@H]1[C@@H]1O[C@@H]12.O=[N+]([O-])[O-]` (single isomer, unassigned; (-)) [(-)-Scopolamine methyl nitrate], the “% conversion” value is reported as 25.39%.
Consider `Cc1ncsc1CCCl.Cl` [Chlormethiazole hydrochloride], for which the “Plate 1 (% conversion)” value came out at 33.94% and the “Plate 1 (% inhibition)” value was determined as 5.75%.
For `Cc1ccc(-c2cc(C(F)(F)F)nn2-c2ccc(S(N)(=O)=O)cc2)cc1` [Celecoxib], the “Plate 5 (% inhibition)” value is recorded as -13.08% and the “Plate 5 (% conversion)” value amounted to 40.77%.
For `COc1ccc2[n-]c([S@@+]([O-])Cc3ncc(C)c(OC)c3C)nc2c1.COc1ccc2[n-]c([S@@+]([O-])Cc3ncc(C)c(OC)c3C)nc2c1.O.O.[Mg+2]` [Esomeprazole magnesium dihydrate], under setting [3], the “Plate 2 (% conversion)” value worked out at 41.52%. The “Plate 2 (% inhibition)” value under setting [5] is -16.62%.
For `Nn1nnc2ccccc21` [1-Aminobenzotriazole], the “Plate 1 (% inhibition)” value under setting [6] is given as -4.79%. The “Plate 1 (% conversion)” value under setting [7] amounted to 37.48%.
A word on the % inhibition: it is the percentage by which the read-out fell short of the control. High values mean strong suppression, low ones little suppression. In the case of `Cc1cccc(C(=O)NCN2CCN(c3ccccc3C#N)CC2)c1.O=C(O)/C=C\C(=O)O` [PD 168,077 maleate], under setting [8], the “% inhibition” value worked out at 1.73%. In addition, the “% conversion” value under setting [1] was determined as 35.88%.
In the case of `CCN(CC)CCNC(=O)c1c(C)[nH]c(/C=C2\C(=O)Nc3ccc(F)cc32)c1C` [Sunitinib malate], the “Plate 2 (% conversion)” value under setting [3] is given as 11.67%. Also, under setting [4], the inhibition at 20 µM came to 72.5%.
Regarding `COc1cc2c(c(OC)c1OC)-c1ccc(OC)c(=O)cc1[C@@H](NC(C)=O)CC2` [Colchicine], the “Plate 1 (% conversion)” value is given as 37.55% and the “Plate 1 (% inhibition)” value was -5.00%.
On to `Nc1nc2c(ncn2COCCO)c(=O)[nH]1` [Acyclovir], for which, under setting [6], the “Plate 1 (% inhibition)” value is on record as -3.39%. Further, the “Plate 1 (% conversion)” value under setting [7] is 37.01%.
For `CC(N)Cc1c[nH]c2ccc(OCc3cccs3)cc12` (stereo not drawn) [BW 723C86], the “Plate 3 (% conversion)” value was found to be 36.52%.
In the case of `Nc1ncnc2c1ncn2[C@@H]1O[C@H](COP(=O)(O)CP(=O)(O)OP(=O)([O-])[O-])[C@@H](O)[C@H]1O.[Li+].[Li+]`, the “Plate 3 (% conversion)” value under setting [9] is 17.86%.
For the molecule `NS(=O)(=O)c1cc2c(cc1Cl)NCNS2(=O)=O` [Hydrochlorothiazide], under setting [3], the “Plate 2 (% conversion)” value came to 36.43%. Besides, the inhibition at 20 µM under setting [4] was -1.41%.
Take `CCN(CC)CCCC(C)Nc1c2ccc(Cl)cc2nc2ccc(OC)cc12` (stereo not drawn) [Quinacrine dihydrochloride]: the “% conversion” value under setting [1] was found to be 39.58%. The inhibition at 20 µM under setting [2] is -9.1%.
Take `CC(C)(C)c1cc(/C=C(\C#N)C(N)=S)cc(C(C)(C)C)c1O` [Tyrphostin AG 879]: the “% conversion” value under setting [1] worked out at 26.24%.
As for `Cc1nc(N=Nc2ccc(S(=O)(=O)O)cc2S(=O)(=O)O)c(COP(=O)(O)O)c(C=O)c1O` [PPADS], under setting [8], the “% inhibition” value stood at 84.93%. In addition, the “% conversion” value under setting [1] is reported as 7.48%.
As for `CN1CCC(c2c[nH]c3ccc(O)cc23)CC1.O=C(O)/C=C\C(=O)O` [BRL 54443 maleate], the “Plate 1 (% conversion)” value was 33.54% and the “Plate 1 (% inhibition)” value is 6.94%.
The term Inhibition denotes the relative decrease from the control value, in per cent. Consider `NC(N)=Nc1ccc2[nH]c3c(c2c1)C[C@@]1(O)[C@H]2Cc4ccc(O)c5c4[C@@]1(CCN2CC1CC1)[C@H]3O5.O=C(O)C(F)(F)F.O=C(O)C(F)(F)F` [GNTI, Guanidinyl-naltrindole di-trifluoroacetate, reference compound], for which the “Plate 2 (% conversion)” value amounted to 1.92%. In addition, for the setting “20 µM”, the “Inhibition at 20 µM [%]” value was 100% and 101.7%. The “IC50 [μM]” value (pH 7.5) is “inactive”.
Turning to `O=C(O)c1ccnc(C(=O)O)c1` [2,4-pyridinedicarboxylic acid], the “Plate 2 (% inhibition)” value (100 uM 2,4-PDCA control wells (columns 1, 2), plate 2) is 100.30% and 100.62% and 100.70%. The “% inhibition” value (LOPAC Plate 3, 100 uM 2,4-PDCA control wells (columns 1, 2)) was 99.57% and 99.80%. Also, under “plate 1”, the “Plate 1 (% inhibition)” value was 100.60% and 99.95% and 100.29%. For the same molecule, for the setting “plate 5, 100 uM 2,4-PDCA controls, plate columns 1, 2”, the “Plate 5 (% conversion), 2,4-PDCA control” value is given as 2.34%.
For `CC(=O)[C@H]1CC[C@H]2[C@@H]3CC[C@H]4C[C@](C)(O)CC[C@]4(C)[C@H]3CC[C@]12C` [Ganaxolone], the “Plate 2 (% conversion)” value was 36.34%. Moreover, the inhibition at 20 µM (read-out: Plate 2 (% inhibition)) is -1.16%.
Take `N.N.[Cl][Pt][Cl]` [Cisplatin]: the “Plate 3 (% conversion)” value under setting [9] was determined as 31.15%.
For `CCN1CCc2nc(N)oc2CC1.Cl.Cl` [B-HT 933 dihydrochloride], under setting [6], the “Plate 1 (% inhibition)” value is listed as -9.80%. Also, the “Plate 1 (% conversion)” value under setting [7] is on record as 39.16%.
Regarding `CC(C)C[C@H](NC(=O)[C@H](O)[C@H](N)Cc1ccccc1)C(=O)O` [Epibestatin hydrochloride], the “Plate 2 (% conversion)” value under setting [3] worked out at 35.33%. Further, the inhibition at 20 µM under setting [4] came out at 1.86%.
In the case of `Nc1c(S(=O)(=O)O)cc(Nc2ccc(Nc3nc(Cl)nc(Nc4cccc(S(=O)(=O)O)c4)n3)c(S(=O)(=O)O)c2)c2c1C(=O)c1ccccc1C2=O` [Reactive Blue 2, reference compound], the “% conversion” value is recorded as 3.94% and the inhibition at 20 µM worked out at 95.3%. The inhibition at 20 µM (read-out: Inhibition at 20 µM [%]) is 95.3%.
Consider `Cl.NO` [Hydroxylamine hydrochloride], for which, under setting [3], the “Plate 2 (% conversion)” value was 39.20%. For the same molecule, under setting [5], the “Plate 2 (% inhibition)” value is on record as -9.70%.
Turning to `Cc1ccc(N(CC2=NCCN2)c2cccc(O)c2)cc1` [Phentolamine mesylate], the “% conversion” value under setting [1] was 38.87%. For the same molecule, the inhibition at 20 µM under setting [2] is -7.04%.
For `Clc1ccc(C(c2ccc(Cl)cc2)n2cc[n+](CC(OCc3ccc(Cl)cc3Cl)c3ccc(Cl)cc3Cl)c2)cc1` (stereo not drawn) [Calmidazolium chloride], the “Plate 1 (% conversion)” value was 58.50%. The “Plate 1 (% inhibition)” value under setting [6] is -67.38%.
Regarding `CC(=O)[C@H]1CC[C@H]2[C@@H]3CCC4=CC(=O)CC[C@]4(C)[C@H]3CC[C@]12C` [Progesterone], under setting [9], the “Plate 3 (% conversion)” value stood at 43.81%.
Regarding `CC[C@H](NC(=O)c1c(C)c(-c2ccccc2)nc2ccccc12)c1ccccc1` [SB 222200], the “Plate 1 (% inhibition)” value under setting [6] is -26.34%. Under setting [7], the “Plate 1 (% conversion)” value is listed as 44.72%.
With `OCCN1CCN(CCCN2c3ccccc3Sc3ccc(Cl)cc32)CC1` [Perphenazine], under setting [9], the “Plate 3 (% conversion)” value came out at 48.99%.
In the case of `CCCCCCN(CCCCCC)C(=O)Cc1c(-c2ccc(F)cc2)[nH]c2ccccc12`, the “Plate 2 (% conversion)” value amounted to 35.52%. Also, the “Plate 2 (% inhibition)” value (20 µM) came out at 1.31%.
`O=c1oc(Cl)c(Cl)c2ccccc12` [3,4-Dichloroisocoumarin]: the “Plate 2 (% conversion)” value was found to be 29.65%. Moreover, the “Plate 2 (% inhibition)” value under setting [5] stood at 18.85%.
In the case of `COc1cccc(OC)c1OCCNCC1CSc2ccccc2O1` (stereo not drawn) [Benoxathian hydrochloride], under setting [6], the “Plate 1 (% inhibition)” value is reported as -17.92%. Moreover, the “Plate 1 (% conversion)” value under setting [7] worked out at 41.89%.
As to `O=C(Nc1ccccc1C(=O)NC1CCCCNC1=O)c1cc2ccccc2s1` (stereo not drawn) [ANA-12], the “% conversion” value under setting [1] was 32.70%.
For `C[C@H](N)CN1CCc2ccc(Br)cc21.C[C@H](N)CN1CCc2ccc(Br)cc21.O=C(O)/C=C/C(=O)O` [VER-3323 hemifumarate salt], the “Plate 3 (% conversion)” value was found to be 21.58%.
As for `CC(C)[C@H]1c2ccc(F)cc2CC[C@@]1(CCN(C)CCCc1nc2ccccc2[nH]1)OC(=O)C1CC1` [NNC 55-0396], under setting [9], the “Plate 3 (% conversion)” value is recorded as 58.37%.
Consider `FC(F)(F)c1ccccc1-n1ccnc1` [1-[2-(Trifluoromethyl)phenyl]imidazole], for which, under setting [1], the “% conversion” value was found to be 26.55%.
As for `CN(C)C(=O)N=NC(=O)N(C)C` [N,N,N,N-Tetramethylazodicarboxamide], the “Plate 2 (% conversion)” value under setting [3] stood at 38.74%. For the same molecule, the “Plate 2 (% inhibition)” value under setting [5] is on record as -8.32%.
